Assay results reported in paper PMC5640798 (Synthetic and Systems Biotechnology, 2016).

Biological target: hERG potassium channel (Homo sapiens, UniProt Q12809)
Assay: hERG channel inhibition test
Assay type: cell-based

hERG potassium channel, sequence (Q12809 whole entry): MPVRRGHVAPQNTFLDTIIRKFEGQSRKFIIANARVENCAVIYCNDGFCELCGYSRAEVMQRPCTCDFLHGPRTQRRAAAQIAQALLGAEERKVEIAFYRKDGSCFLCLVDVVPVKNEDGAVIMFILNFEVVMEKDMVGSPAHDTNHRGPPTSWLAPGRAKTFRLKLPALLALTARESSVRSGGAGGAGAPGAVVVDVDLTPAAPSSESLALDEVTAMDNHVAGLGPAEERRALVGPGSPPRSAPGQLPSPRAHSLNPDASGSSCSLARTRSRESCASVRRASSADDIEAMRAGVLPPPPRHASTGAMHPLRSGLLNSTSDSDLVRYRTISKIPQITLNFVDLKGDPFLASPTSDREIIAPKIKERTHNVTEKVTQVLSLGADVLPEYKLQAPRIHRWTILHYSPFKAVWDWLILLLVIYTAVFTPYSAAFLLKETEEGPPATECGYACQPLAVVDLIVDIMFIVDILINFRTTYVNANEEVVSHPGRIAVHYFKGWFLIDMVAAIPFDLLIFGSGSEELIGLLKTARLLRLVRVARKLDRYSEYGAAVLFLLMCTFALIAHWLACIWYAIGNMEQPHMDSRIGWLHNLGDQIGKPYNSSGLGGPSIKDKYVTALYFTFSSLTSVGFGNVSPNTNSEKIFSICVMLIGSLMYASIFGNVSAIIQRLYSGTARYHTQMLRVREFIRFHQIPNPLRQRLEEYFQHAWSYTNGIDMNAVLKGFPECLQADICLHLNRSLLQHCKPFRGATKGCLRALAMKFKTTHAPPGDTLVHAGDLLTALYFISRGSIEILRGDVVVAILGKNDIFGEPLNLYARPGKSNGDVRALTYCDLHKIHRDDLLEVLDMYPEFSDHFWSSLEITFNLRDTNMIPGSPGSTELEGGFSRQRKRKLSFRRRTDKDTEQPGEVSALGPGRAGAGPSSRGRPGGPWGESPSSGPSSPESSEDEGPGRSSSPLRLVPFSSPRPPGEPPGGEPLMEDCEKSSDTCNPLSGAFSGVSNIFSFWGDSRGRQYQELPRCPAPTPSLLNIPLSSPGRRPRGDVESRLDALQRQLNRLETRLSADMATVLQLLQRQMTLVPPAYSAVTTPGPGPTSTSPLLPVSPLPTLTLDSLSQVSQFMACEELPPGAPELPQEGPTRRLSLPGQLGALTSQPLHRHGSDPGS

Work on CC(C)[C@H]1OC(=O)[C@H](Cc2ccccc2)N(C)C(=O)[C@@H](C(C)C)OC(=O)[C@H](Cc2ccccc2)N(C)C(=O)[C@@H](C(C)C)OC(=O)[C@H](Cc2ccccc2)N(C)C1=O [BEA, beauvericin] yielded an IC50 of roughly 2.55 µM.
